This note sets out measurements from patent publication US20200179428A1, “CYCLIC PHOSPHATE SUBSTITUTED NUCLEOSIDE DERIVATIVES AND METHODS OF USE THEREOF FOR THE TREATMENT OF VIRAL DISEASES” (priority 2016, published 2020).

pEC50: −log10 of the molar value.

Test system in one data set: not listed separately
In words: Cytotoxicity MTS assay (CellTiter 96 Aqueous One Solution) in replicon cells. It counts as cell-based. The settings on record: HCV replicon cells (1b-Con1); EDU; read-out: CC50 (EDU) Range. The method, then: (§1) To measure cell-based anti-HCV activity of the compounds of the present invention, replicon cells (1b-Con1) are seeded at 5000 cells/well in 96-well plates one day prior to treatment with a compound of the invention. Various concentrations of a test compound of the invention in DMSO are then added to the replicon cells, with the final concentration of DMSO at 0.5% and fetal bovine serum at 10% in the assay media. Cells are harvested three days post-dosing, and the replicon RNA level is determined using real-time RT-PCR (Taqman assay) with GAPDH RNA as endogenous control. EC50 values are calculated from experiments with 10 serial twofold dilutions of the inhibitor in triplicate. To measure cytotoxicity in replicon cells of an inhibitor, an MTS assay is performed according to the manufacturer's protocol for CellTiter 96 Aqueous One Solution Cell Proliferation Assay (Promega, Cat # G3580) three days post dosing on cells treated identically as in replicon activity assays. […] Cytotoxicity in other types of cells may be measured using the same MTS protocol.
`C#C[C@]1(C)[C@@H]2O[P@](=O)(OCC(C)CCC(=O)OC(C)C)OC[C@H]2O[C@H]1n1ccc(=O)[nH]c1=O` (stereo partly drawn) [Compound 22B]: the CC50 at 3 days is > 50 µM.
For the molecule `C#C[C@]1(C)[C@@H]2OP(=O)(OCCC(C)C(=O)OC3CCCC3)OC[C@H]2O[C@H]1n1ccc(=O)[nH]c1=O` (single isomer, unassigned) [Compound 2B], the CC50 at 3 days was > 50 µM.
With `CO[C@H](CCO[P@]1(=O)OC[C@H]2O[C@@H](n3ccc(=O)[nH]c3=O)[C@](C)(N)[C@@H]2O1)C(=O)OC(C)C` [Compound 45B], the CC50 at 3 days was > 50 µM.
For `CC(C)OC(=O)C(C)CCCO[P@@]1(=O)OC[C@H]2O[C@@H](n3ccc(=O)[nH]c3=O)[C@](C)(N)[C@@H]2O1` (stereo partly drawn) [Compound 34A], the cytotoxic concentration (CC50) at 3 days is > 50 µM.
`C#C[C@]1(C)[C@@H]2O[P@@](=O)(OCC[C@H](OC)C(=O)OC(C)C)OC[C@H]2O[C@H]1n1ccc(=O)[nH]c1=O` [Compound 56A]: the CC50 at 3 days is > 50 µM.
The same measure, in the same setting: for `CC(CCO[P@@]1(=O)OC[C@H]2O[C@@H](n3ccc(=O)[nH]c3=O)[C@](C)(N)[C@@H]2O1)CC(=O)OC(C)C` (stereo partly drawn) [Compound 21A] the value was > 50 µM; for `CC(C)OC(=O)C(CCO[P@@]1(=O)OC[C@H]2O[C@@H](n3ccc(=O)[nH]c3=O)[C@](C)(N)[C@@H]2O1)c1ccccc1` (stereo partly drawn) [Compound 33A], > 50 µM; for `C#C[C@]1(C)[C@@H]2O[P@@](=O)(OCC(C)(C)CC(=O)OC(C)C)OC[C@H]2O[C@H]1n1ccc(=O)[nH]c1=O` [Compound 18A], > 50 µM.
As for `C#C[C@]1(C)[C@@H]2O[P@@](=O)(OCC(CC(=O)OC(C)C)N(C)C(=O)OC(C)(C)C)OC[C@H]2O[C@H]1n1ccc(=O)[nH]c1=O` (stereo partly drawn) [Compound 74A1], the CC50 at 3 days is > 50 µM.
Turning to `CO[C@H](CO[P@@]1(=O)OC[C@H]2O[C@@H](n3ccc(=O)[nH]c3=O)[C@](C)(N)[C@@H]2O1)[C@@H](OC)C(=O)OC(C)C` [Compound 48A], the CC50 at 3 days was > 50 µM.
`C#C[C@]1(C)[C@@H]2O[P@@](=O)(OCCC(C(=O)OC(C)C)C(C)C)OC[C@H]2O[C@H]1n1ccc(=O)[nH]c1=O` (stereo partly drawn) [Compound 32A]: the CC50 at 3 days is > 50 µM.
On to `CC(C)OC(=O)[C@@H](C)CCOP1(=O)OC[C@H]2O[C@@H](n3ccc(=O)[nH]c3=O)[C@](C)(Cl)[C@@H]2O1` (single isomer, unassigned) [Compound 39A1], for which the CC50 at 3 days was > 50 µM.
As to `CC(C)OC(=O)CC(F)(F)CO[P@]1(=O)OC[C@H]2O[C@@H](n3ccc(=O)[nH]c3=O)[C@](C)(N)[C@@H]2O1` [Compound 49B], the cytotoxic concentration (CC50) at 3 days is < 50 µM.
As to `COC(=O)N[C@H](CO[P@@]1(=O)OC[C@H]2O[C@@H](n3ccc(=O)[nH]c3=O)[C@](C)(C#N)[C@@H]2O1)C(=O)OC(C)C` [Compound 41A], the CC50 at 3 days is > 50 µM.
With `CO[C@H](CO[P@@]1(=O)OC[C@H]2O[C@@H](n3ccc(=O)[nH]c3=O)[C@](C)(N)[C@@H]2O1)CC(=O)OC(C)C` [Compound 61A], the CC50 at 3 days was > 50 µM.
Regarding `C#C[C@]1(C)[C@@H]2O[P@](=O)(OCC(CC(=O)OC(C)C)N(C)C(=O)OC(C)(C)C)OC[C@H]2O[C@H]1n1ccc(=O)[nH]c1=O` (stereo partly drawn) [Compound 74B], the CC50 at 3 days is > 50 µM.
In the case of `CC(C)OC(=O)[C@H](C)CCOP1(=O)OC[C@@]2(F)O[C@@H](n3ccc(=O)[nH]c3=O)[C@](C)(O)[C@@H]2O1` (stereo partly drawn) [Compound 86A], the CC50 at 3 days was > 50 µM.
For the molecule `CO[C@H](CO[P@]1(=O)OC[C@H]2O[C@@H](n3ccc(=O)[nH]c3=O)[C@](C)(N)[C@@H]2O1)[C@@H](OC)C(=O)OC(C)C` [Compound 48B], the CC50 at 3 days is > 50 µM.
As to `COC(=O)N[C@@H](CCO[P@]1(=O)OC[C@H]2O[C@@H](n3ccc(=O)[nH]c3=O)[C@](C)(N)[C@@H]2O1)C(=O)OC(C)C` [Compound 42B], the CC50 at 3 days is > 50 µM.
Same read-out and setting: for `C#C[C@]1(C)[C@@H]2O[P@@](=O)(OC[C@H](F)CC(=O)OC(C)C)OC[C@H]2O[C@H]1n1ccc(=O)[nH]c1=O` [Compound 66A] the value was > 50 µM.
Take `C[C@@]1(N)[C@@H]2OP(=O)(OCCC3(C(=O)OC4CCCC4)CCC3)OC[C@H]2O[C@H]1n1ccc(=O)[nH]c1=O` (stereo partly drawn) [Compound 29A]: the CC50 at 3 days was > 50 µM.

In another data set the test system is replicon cells (1b-Con1). In words: Replicon activity assay (replicon RNA level by real-time RT-PCR, Taqman). In kind it is cell-based. The settings on record: Hepatitis C virus, HCV replicon genotype 1b; read-out: EC50 (1b) Range. The procedure: as §1
Turning to `C#C[C@]1(C)[C@@H]2O[P@](=O)(OCC(C)CCC(=O)OC(C)C)OC[C@H]2O[C@H]1n1ccc(=O)[nH]c1=O` (stereo partly drawn) [Compound 22B], the pEC50 is < 5.00.
On to `C#C[C@]1(C)[C@@H]2OP(=O)(OCCC(C)C(=O)OC3CCCC3)OC[C@H]2O[C@H]1n1ccc(=O)[nH]c1=O` (single isomer, unassigned) [Compound 2B], for which the pEC50 was ≥ 6.60.
On the same count and under the same terms, as for `CO[C@H](CCO[P@]1(=O)OC[C@H]2O[C@@H](n3ccc(=O)[nH]c3=O)[C@](C)(N)[C@@H]2O1)C(=O)OC(C)C` [Compound 45B], the figure is < 5.00; as for `CC(C)OC(=O)C(C)CCCO[P@@]1(=O)OC[C@H]2O[C@@H](n3ccc(=O)[nH]c3=O)[C@](C)(N)[C@@H]2O1` (stereo partly drawn) [Compound 34A], < 5.00.
The same measure, in the same setting: as for `C#C[C@]1(C)[C@@H]2O[P@@](=O)(OCC[C@H](OC)C(=O)OC(C)C)OC[C@H]2O[C@H]1n1ccc(=O)[nH]c1=O` [Compound 56A], the figure is 6.00 to 6.60; as for `CC(CCO[P@@]1(=O)OC[C@H]2O[C@@H](n3ccc(=O)[nH]c3=O)[C@](C)(N)[C@@H]2O1)CC(=O)OC(C)C` (stereo partly drawn) [Compound 21A], < 5.00; as for `CC(C)OC(=O)C(CCO[P@@]1(=O)OC[C@H]2O[C@@H](n3ccc(=O)[nH]c3=O)[C@](C)(N)[C@@H]2O1)c1ccccc1` (stereo partly drawn) [Compound 33A], < 5.00.
Still for that read-out and setting: as for `C#C[C@]1(C)[C@@H]2O[P@@](=O)(OCC(C)(C)CC(=O)OC(C)C)OC[C@H]2O[C@H]1n1ccc(=O)[nH]c1=O` [Compound 18A], the figure is < 5.00; as for `C#C[C@]1(C)[C@@H]2O[P@@](=O)(OCC(CC(=O)OC(C)C)N(C)C(=O)OC(C)(C)C)OC[C@H]2O[C@H]1n1ccc(=O)[nH]c1=O` (stereo partly drawn) [Compound 74A1], < 5.00.
Consider `CO[C@H](CO[P@@]1(=O)OC[C@H]2O[C@@H](n3ccc(=O)[nH]c3=O)[C@](C)(N)[C@@H]2O1)[C@@H](OC)C(=O)OC(C)C` [Compound 48A], for which the pEC50 is < 5.00.
Still for that read-out and setting: as for `C#C[C@]1(C)[C@@H]2O[P@@](=O)(OCCC(C(=O)OC(C)C)C(C)C)OC[C@H]2O[C@H]1n1ccc(=O)[nH]c1=O` (stereo partly drawn) [Compound 32A], the figure is < 5.00.
Take `CC(C)OC(=O)[C@@H](C)CCOP1(=O)OC[C@H]2O[C@@H](n3ccc(=O)[nH]c3=O)[C@](C)(Cl)[C@@H]2O1` (single isomer, unassigned) [Compound 39A1]: the pEC50 was ≥ 6.60.
For `CC(C)OC(=O)CC(F)(F)CO[P@]1(=O)OC[C@H]2O[C@@H](n3ccc(=O)[nH]c3=O)[C@](C)(N)[C@@H]2O1` [Compound 49B], the pEC50 is 5.00 to 6.00.
`COC(=O)N[C@H](CO[P@@]1(=O)OC[C@H]2O[C@@H](n3ccc(=O)[nH]c3=O)[C@](C)(C#N)[C@@H]2O1)C(=O)OC(C)C` [Compound 41A]: the pEC50 is < 5.00.
With `CO[C@H](CO[P@@]1(=O)OC[C@H]2O[C@@H](n3ccc(=O)[nH]c3=O)[C@](C)(N)[C@@H]2O1)CC(=O)OC(C)C` [Compound 61A], the pEC50 is < 5.00.
For `C#C[C@]1(C)[C@@H]2O[P@](=O)(OCC(CC(=O)OC(C)C)N(C)C(=O)OC(C)(C)C)OC[C@H]2O[C@H]1n1ccc(=O)[nH]c1=O` (stereo partly drawn) [Compound 74B], the pEC50 is < 5.00.
`CC(C)OC(=O)[C@H](C)CCOP1(=O)OC[C@@]2(F)O[C@@H](n3ccc(=O)[nH]c3=O)[C@](C)(O)[C@@H]2O1` (stereo partly drawn) [Compound 86A]: the pEC50 was 5.00 to 6.00.
In the case of `CO[C@H](CO[P@]1(=O)OC[C@H]2O[C@@H](n3ccc(=O)[nH]c3=O)[C@](C)(N)[C@@H]2O1)[C@@H](OC)C(=O)OC(C)C` [Compound 48B], the pEC50 was < 5.00.
As for `COC(=O)N[C@@H](CCO[P@]1(=O)OC[C@H]2O[C@@H](n3ccc(=O)[nH]c3=O)[C@](C)(N)[C@@H]2O1)C(=O)OC(C)C` [Compound 42B], the pEC50 was < 5.00.
Take `C#C[C@]1(C)[C@@H]2O[P@@](=O)(OC[C@H](F)CC(=O)OC(C)C)OC[C@H]2O[C@H]1n1ccc(=O)[nH]c1=O` [Compound 66A]: the pEC50 is < 5.00.
Take `C[C@@]1(N)[C@@H]2OP(=O)(OCCC3(C(=O)OC4CCCC4)CCC3)OC[C@H]2O[C@H]1n1ccc(=O)[nH]c1=O` (stereo partly drawn) [Compound 29A]: the pEC50 was < 5.00.
